We go through four compounds from US20230284618A1, “HERBICIDAL COMBINATIONS” (UPL Corporation Limited, priority 2022, published 2023).

What all share (type): in vivo
One assay has as its system Common Ragweed. Description: Pre-emergence bio-efficacy, weed control 27 DAT. The note with it: 27 days after treatment, G ai: imazamox 105, rimsulfuron 70, pendimethalin 4270, mesotrione 210. Here is the method:
(§1) Experiments were carried out to evaluate the bio-efficacy of the herbicidal combinations according to the present disclosure. The herbicides were applied at the pre-emergence stage. The results have been disclosed in Tables 1-5.
(§2) Weeds: Giant Foxtail, Common Ragweed, Galinsoga, Yellow Nutsedge

Another assay has as its system Galinsoga. Description: Pre-emergence bio-efficacy, weed control 27 DAT. The following applies: 27 days after treatment, G ai: imazamox 105, rimsulfuron 70, pendimethalin 4270, mesotrione 210. Here is the method: as §1, §2
The subject of a further assay is Giant Foxtail. Description: Pre-emergence bio-efficacy, weed control 27 DAT. The following applies: 27 days after treatment, G ai: imazamox 105, rimsulfuron 70, pendimethalin 4270, mesotrione 210. Here is the method: as §1, §2
A further assay deals with Yellow Nutsedge. The assay can be described thus: Pre-emergence bio-efficacy, weed control 27 DAT. The note with it: 27 days after treatment, G ai: imazamox 105, rimsulfuron 70, pendimethalin 4270, mesotrione 210. Here is the method: as §1, §2
A further assay concerns Dandelion. The assay can be described thus: Pre-emergence bio-efficacy, weed control 85 DAT. The following applies: 85 days after treatment, G ai: imazamox 105, rimsulfuron 70, pendimethalin 4270, mesotrione 210. Here is the method: as §1
(§3) Weeds: Common Velvetgrass, Broadleaf spp., Red Sorrel, Dandelion, Geranium spp.

The subject of another assay is Geranium spp. The assay can be described thus: Pre-emergence bio-efficacy, weed control 85 DAT. The following applies: 85 days after treatment, G ai: imazamox 105, rimsulfuron 70, pendimethalin 4270, mesotrione 210. How it is done:
as §1, §3

For the next assay, the system named is Red Sorrel. Description: Pre-emergence bio-efficacy, weed control 85 DAT. The following applies: 85 days after treatment, G ai: imazamox 105, rimsulfuron 70, pendimethalin 4270, mesotrione 210. How it is done:
as §1, §3

For the compound `COCc1cnc(C2=NC(C)(C(C)C)C(=O)N2)c(C(=O)O)c1` (stereo not shown) [Imazamox], the “Control 27 DAT (%) Common Ragweed” value in the assay on Common Ragweed is listed as 63%. Further, the “Control 27 DAT (%) Galinsoga” value in the assay on Galinsoga amounted to 53%. Also, in the assay with Giant Foxtail, the “Control 27 DAT (%) Giant Foxtail” value amounted to 58%. In addition, in the assay on Yellow Nutsedge, the “Control 27 DAT (%) Yellow Nutsedge” value came out at 40%. For the same compound, the “Control 85 DAT (%) Dandelion” value in the assay with Dandelion is reported as 5%. Besides, the “Control 85 DAT (%) Geranium spp.” value in the assay on Geranium spp. came out at 8%. In addition, in the assay with Red Sorrel, the “Control 85 DAT (%) Red Sorrel” value is listed as 13%.

Consider `CS(=O)(=O)c1ccc(C(=O)C2C(=O)CCCC2=O)c([N+](=O)[O-])c1` [Mesotrione], for which the “Control 85 DAT (%) Dandelion” value in the assay on Dandelion is on record as 8%. Also, the “Control 85 DAT (%) Geranium spp.” value in the assay on Geranium spp. is listed as 5%. The “Control 85 DAT (%) Red Sorrel” value with Red Sorrel amounted to 8%.

For `CCC(CC)Nc1c([N+](=O)[O-])cc(C)c(C)c1[N+](=O)[O-]` [Pendimethalin], the “Control 85 DAT (%) Dandelion” value in the assay with Dandelion turned out to be 20%. The “Control 85 DAT (%) Geranium spp.” value in the assay with Geranium spp. is given as 18%. Moreover, in the assay on Red Sorrel, the “Control 85 DAT (%) Red Sorrel” value is given as 15%.

With `CCS(=O)(=O)c1cccnc1S(=O)(=O)NC(=O)Nc1nc(OC)cc(OC)n1` [Rimsulfuron], the “Control 85 DAT (%) Dandelion” value with Dandelion is on record as 45%. Moreover, in the assay on Geranium spp., the “Control 85 DAT (%) Geranium spp.” value was determined as 28%. Further, in the assay with Red Sorrel, the “Control 85 DAT (%) Red Sorrel” value is listed as 18%.
